From patent publication US20140235616A1, “PYRAZOLOQUINOLINONE DERIVATIVES, PREPARATION THEREOF AND THERAPEUTIC USE THEREOF” (SANOFI, priority 2011, published 2014)

What follows are compounds tested against T1, human MetAP2 (Homo sapiens, UniProt P50579) (assay: MetAP2 enzymatic screening test (isolated enzyme, Met-Pro-Arg-pNa substrate, absorbance at 405 nm)). Conditions: read-out: % inhibition hMETAP2 at 100 nM.
T1 construct: made in house; host or cells: Sf9 insect cells (baculovirus)
Type: biochemical
Procedure: The compounds according to the invention underwent biochemical studies in order to determine their capacity to inhibit the enzyme methionine-aminopeptidase2 (enzymatic test on isolated enzyme).
MetAP2 Enzymatic Screening Test
For the enzymatic test, human MetAP2 protein was obtained from a culture supernatant of insect cells (sf9) infected with MetAP2 recombinant baculovirus.
Before performing the experiment, dialysis of the MetAP2 supernatant is performed over 24 hours at 4° C. in a buffer (10 mM Hepes, 100 mM KCl, 10% glycerol, pH 7.4) in the presence of EDTA (1 mM) over the first 12 hours.
The dialysis supernatant is recovered and manganese, used as cofactor, is added to a final concentration of 300 μM.
The enzymatic test is a test in two steps.
Consequently, the second step consists in reacting the peptides cleaved in the preceding step with a second peptidase in order to release the chromophore.

T1 sequence (P50579 whole entry): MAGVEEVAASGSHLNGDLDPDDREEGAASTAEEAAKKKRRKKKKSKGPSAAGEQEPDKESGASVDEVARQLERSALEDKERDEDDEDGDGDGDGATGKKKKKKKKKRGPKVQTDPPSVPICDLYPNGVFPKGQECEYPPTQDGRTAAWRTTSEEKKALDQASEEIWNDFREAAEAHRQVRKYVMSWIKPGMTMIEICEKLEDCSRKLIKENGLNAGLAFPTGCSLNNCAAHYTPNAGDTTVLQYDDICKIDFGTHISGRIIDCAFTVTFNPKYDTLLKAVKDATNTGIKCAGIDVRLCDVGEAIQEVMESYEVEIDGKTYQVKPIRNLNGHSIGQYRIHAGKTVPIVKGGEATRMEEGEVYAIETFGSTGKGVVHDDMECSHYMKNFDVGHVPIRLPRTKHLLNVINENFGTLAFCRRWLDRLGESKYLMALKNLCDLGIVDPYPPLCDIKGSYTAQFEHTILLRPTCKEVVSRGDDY

Compared with `CCn1c(=O)c2cn[nH]c2c2ccc(-c3ccc(N4CCN(C)CC4)cc3)cc21` [Compound 11, 5-ethyl-7-[4-(4-methylpiperazin-1-yl)phenyl]-1,5-dihydro-4H-pyrazolo[4,3-c]quinolin-4-one], `CCn1c(=O)c2cn[nH]c2c2ccc(-c3ccc(N4CCNCC4)cc3)cc21` [Compound 10, 5-ethyl-7-(4-piperazin-1-ylphenyl)-1,5-dihydro-4H-pyrazolo[4,3-c]quinolin-4-one] is higher in inhibition at 0.1 µM: 76% for the first, 77% for the second.

Going from `CCn1c(=O)c2cn[nH]c2c2ccc(-c3ccc(C(=O)N4CCN(C)CC4)cc3)cc21` [Compound 21, 5-ethyl-7-[4-(4-methylpiperazine-1-carbonyl)phenyl]-1,5-dihydro-4H-pyrazolo[4,3-c]quinolin-4-one] to `CCn1c(=O)c2cn[nH]c2c2ccc(-c3ccc(C(=O)NCCN(C)C)cc3)cc21` [Compound 13, N-(2-dimethylaminoethyl)-4-(5-ethyl-4-oxo-4,5-dihydro-1H-pyrazolo[4,3-c]quinolin-7-yl)benzamide], the inhibition at 0.1 µM rises from 70% to 75%.

Compared with `CCn1c(=O)c2cn[nH]c2c2ccc(-c3ccc(C(=O)NCCCN(C)C)cc3)cc21` [Compound 9, N-(3-dimethylaminopropyl)-4-(5-ethyl-4-oxo-4,5-dihydro-1H-pyrazolo[4,3-c]quinolin-7-yl)benzamide], `CCn1c(=O)c2cn[nH]c2c2ccc(-c3cccc(C(=O)NCCN(C)C)c3)cc21` [Compound 37, N-(2-dimethylaminoethyl)-3-(5-ethyl-4-oxo-4,5-dihydro-1H-pyrazolo[4,3-c]quinolin-7-yl)benzamide] is lower in inhibition at 0.1 µM: 78% for the first, 60% for the second.

`O=c1c2cn[nH]c2c2ccc(-c3ccccc3S(=O)(=O)N3CCCC3)cc2n1CC(F)(F)F` [Compound 133, 7-[2-(pyrrolidine-1-sulfonyl)phenyl]-5-(2,2,2-trifluoroethyl)-1,5-dihydro-4H-pyrazolo[4,3-c]quinolin-4-one] and `CC(C)NS(=O)(=O)c1ccccc1-c1ccc2c3[nH]ncc3c(=O)n(CC(F)(F)F)c2c1` [Compound 134, N-isopropyl-2-[4-oxo-5-(2,2,2-trifluoroethyl)-4,5-dihydro-1H-pyrazolo[4,3-c]quinolin-7-yl]benzenesulfonamide] are the same in inhibition at 0.1 µM: 45% for the first, 45% for the second.

`COc1ccc(-c2ccc3c4[nH]ncc4c(=O)n(CC(F)(F)F)c3c2)c(C)n1` [Compound 138, 7-(6-methoxy-2-methylpyrid-3-yl)-5-(2,2,2-trifluoroethyl)-1,5-dihydro-4H-pyrazolo[4,3-c]quinolin-4-one] and `Cc1nc(N)ccc1-c1ccc2c3[nH]ncc3c(=O)n(CC(F)(F)F)c2c1` [Compound 142, 7-(6-amino-2-methylpyrid-3-yl)-5-(2,2,2-trifluoroethyl)-1,5-dihydro-4H-pyrazolo[4,3-c]quinolin-4-one] are the same in inhibition at 0.1 µM: 44% for the first, 44% for the second.

Compared with `O=c1c2cn[nH]c2c2ccc(-c3ccnc(Cl)c3F)cc2n1CC(F)(F)F` [Compound 41, 7-(2-chloro-3-fluoropyrid-4-yl)-5-(2,2,2-trifluoroethyl)-1,5-dihydro-4H-pyrazolo[4,3-c]quinolin-4-one], `O=c1c2cn[nH]c2c2ccc(-c3cccc(Cl)c3O)cc2n1CC(F)(F)F` [Compound 53, 7-(3-chloro-2-hydroxyphenyl)-5-(2,2,2-trifluoroethyl)-1,5-dihydro-4H-pyrazolo[4,3-c]quinolin-4-one] is higher in inhibition at 0.1 µM: 40% for the first, 43% for the second.

First: O=c1c2cn[nH]c2c2ccc(-c3cccc(CO)n3)cc2n1CC(F)(F)F [Compound 154, 7-(6-hydroxymethylpyrid-2-yl)-5-(2,2,2-trifluoroethyl)-1,5-dihydro-4H-pyrazolo[4,3-c]quinolin-4-one]
Second: O=c1c2cn[nH]c2c2ccc(-c3cccc(F)n3)cc2n1CC(F)(F)F [Compound 163, 7-(6-fluoropyrid-2-yl)-5-(2,2,2-trifluoroethyl)-1,5-dihydro-4H-pyrazolo[4,3-c]quinolin-4-one]
The inhibition at 0.1 µM of the first is higher: 41% for the first, 38% for the second.

Going from `COC(=O)c1ccc(-c2ccc3c4[nH]ncc4c(=O)n(CC(F)(F)F)c3c2)c(N)c1` [Compound 55, methyl 3-amino-4-[4-oxo-5-(2,2,2-trifluoroethyl)-4,5-dihydro-1H-pyrazolo[4,3-c]quinolin-7-yl]benzoate] to `COc1ccc(-c2ccc3c4[nH]ncc4c(=O)n(CC(F)(F)F)c3c2)c(CO)c1` [Compound 49, 7-(2-hydroxymethyl-4-methoxyphenyl)-5-(2,2,2-trifluoroethyl)-1,5-dihydro-4H-pyrazolo[4,3-c]quinolin-4-one], the inhibition at 0.1 µM rises from 40% to 45%.

Compared with `O=C(c1ccc(-c2ccc3c4[nH]ncc4c(=O)n(CC(F)(F)F)c3c2)cn1)N1CCOCC1` [Compound 141, 7-[6-(morpholine-4-carbonyl)pyrid-3-yl]-5-(2,2,2-trifluoroethyl)-1,5-dihydro-4H-pyrazolo[4,3-c]quinolin-4-one], `COc1ccc(-c2ccc3c4[nH]ncc4c(=O)n(CC(F)(F)F)c3c2)cn1` [Compound 128, 7-(6-methoxypyrid-3-yl)-5-(2,2,2-trifluoroethyl)-1,5-dihydro-4H-pyrazolo[4,3-c]quinolin-4-one] is lower in inhibition at 0.1 µM: 44% for the first, 41% for the second.

`CCn1c(=O)c2cn[nH]c2c2ccc(-c3ccc(C(=O)N4CCOCC4)c(Cl)c3)cc21` [Compound 29, 7-[3-chloro-4-(morpholine-4-carbonyl)phenyl]-5-ethyl-1,5-dihydro-4H-pyrazolo[4,3-c]quinolin-4-one] and `CCn1c(=O)c2cn[nH]c2c2ccc(-c3ccc(F)c(C(=O)NC)c3)cc21` [Compound 27, 5-(5-ethyl-4-oxo-4,5-dihydro-1H-pyrazolo[4,3-c]quinolin-7-yl)-2-fluoro-N-methylbenzamide] are the same in inhibition at 0.1 µM: 67% for the first, 67% for the second.

Going from `COc1cc(C)c(-c2ccc3c4[nH]ncc4c(=O)n(CC(F)(F)F)c3c2)cn1` [Compound 161, 7-(6-methoxy-4-methylpyrid-3-yl)-5-(2,2,2-trifluoroethyl)-1,5-dihydro-4H-pyrazolo[4,3-c]quinolin-4-one] to `COc1cc(-c2ccc3c4[nH]ncc4c(=O)n(CC(F)(F)F)c3c2)ccn1` [Compound 158, 7-(2-methoxypyrid-4-yl)-5-(2,2,2-trifluoroethyl)-1,5-dihydro-4H-pyrazolo[4,3-c]quinolin-4-one], the inhibition at 0.1 µM rises from 39% to 40%.

Going from `CCn1c(=O)c2cn[nH]c2c2ccc(-c3cc(OC)ccc3F)cc21` [Compound 28, 5-ethyl-7-(2-fluoro-5-methoxyphenyl)-1,5-dihydro-4H-pyrazolo[4,3-c]quinolin-4-one] to `CCNC(=O)c1cccc(-c2ccc3c4[nH]ncc4c(=O)n(CC)c3c2)c1` [Compound 35, N-ethyl-3-(5-ethyl-4-oxo-4,5-dihydro-1H-pyrazolo[4,3-c]quinolin-7-yl)benzamide], the inhibition at 0.1 µM falls from 67% to 62%.

First: N#Cc1cccc(-c2ccc3c4[nH]ncc4c(=O)n(CC(F)(F)F)c3c2)n1 [Compound 153, 6-[4-oxo-5-(2,2,2-trifluoroethyl)-4,5-dihydro-1H-pyrazolo[4,3-c]quinolin-7-yl]pyridine-2-carbonitrile]
Second: COC(=O)c1cccc(-c2ccc3c4[nH]ncc4c(=O)n(CC(F)(F)F)c3c2)n1 [Compound 164, methyl 6-[4-oxo-5-(2,2,2-trifluoroethyl)-4,5-dihydro-1H-pyrazolo[4,3-c]quinolin-7-yl]pyridine-2-carboxylate]
The inhibition at 0.1 µM of the first is higher: 41% for the first, 37% for the second.

Compared with `O=c1c2cn[nH]c2c2ccc(-c3ccccc3Cn3cncn3)cc2n1CC(F)(F)F` [Compound 159, 7-(2-[1,2,4]triazol-1-ylmethylphenyl)-5-(2,2,2-trifluoroethyl)-1,5-dihydro-4H-pyrazolo[4,3-c]quinolin-4-one], `CC(=O)NCc1ccccc1-c1ccc2c3[nH]ncc3c(=O)n(CC(F)(F)F)c2c1` [Compound 151, N-{2-[4-oxo-5-(2,2,2-trifluoroethyl)-4,5-dihydro-1H-pyrazolo[4,3-c]quinolin-7-yl]benzyl}acetamide] is higher in inhibition at 0.1 µM: 40% for the first, 41% for the second.

First: Cc1ccnc(-c2ccc3c4[nH]ncc4c(=O)n(CC(F)(F)F)c3c2)c1 [Compound 187, 7-(4-methylpyrid-2-yl)-5-(2,2,2-trifluoroethyl)-1,5-dihydro-4H-pyrazolo[4,3-c]quinolin-4-one]
Second: O=c1c2cn[nH]c2c2ccc(-c3ccc(CO)cn3)cc2n1CC(F)(F)F [Compound 157, 7-(5-hydroxymethylpyrid-2-yl)-5-(2,2,2-trifluoroethyl)-1,5-dihydro-4H-pyrazolo[4,3-c]quinolin-4-one]
The inhibition at 0.1 µM of the first is lower: 40% for the first, 41% for the second.

`CCc1nc(-c2ccccc2-c2ccc3c4[nH]ncc4c(=O)n(CC(F)(F)F)c3c2)no1` [Compound 150, 7-[2-(5-ethyl-[1,2,4]oxadiazol-3-yl)phenyl]-5-(2,2,2-trifluoroethyl)-1,5-dihydro-4H-pyrazolo[4,3-c]quinolin-4-one] and `O=c1c2cn[nH]c2c2ccc(-c3ccccc3-c3cnco3)cc2n1CC(F)(F)F` [Compound 148, 7-(2-oxazol-5-ylphenyl)-5-(2,2,2-trifluoroethyl)-1,5-dihydro-4H-pyrazolo[4,3-c]quinolin-4-one] are the same in inhibition at 0.1 µM: 42% for the first, 42% for the second.

First: COc1ncc(-c2ccc3c4[nH]ncc4c(=O)n(CC(F)(F)F)c3c2)c(N(C)C)n1 [Compound 149, 7-(4-dimethylamino-2-methoxypyrimidin-5-yl)-5-(2,2,2-trifluoroethyl)-1,5-dihydro-4H-pyrazolo[4,3-c]quinolin-4-one]
Second: CCn1c(=O)c2cn[nH]c2c2ccc(-c3cnc(N4CCNCC4)nc3)cc21 [Compound 20, 5-ethyl-7-(2-piperazin-1-ylpyrimidin-5-yl)-1,5-dihydro-4H-pyrazolo[4,3-c]quinolin-4-one]
The inhibition at 0.1 µM of the first is lower: 42% for the first, 70% for the second.
